The values that follow are results of earlier work, collected in paper PMC6843717 (ACS Omega, 2019).

For the data set the following is noted: cited from earlier work; for bioavailability (F): reported for other anticancer drugs; for bioavailability: FDA-approved small molecules for advanced breast cancer.

Each structure is given as a SMILES string.

Consider `CCn1c2ccccc2c2cc(Nc3ccnc(NCCCN4CCOCC4)n3)ccc21` [EHop-016], for which the “bioavailability (F)” value was 40%.
Consider `O=c1cc(CN2CCOCC2)occ1OCCCCCSc1ccnc2cc(C(F)(F)F)ccc12` [EHT1864], for which the T1/2 (Rac inhibitor, plasma) is 1.65 h.
Broadly, the bioavailability is dose-corrected exposure relative to a reference, in per cent. Consider `CC(=O)O[C@H]1C(=O)[C@@]2(C)[C@H]([C@H](OC(=O)c3ccccc3)[C@]3(O)C[C@H](OC(=O)[C@H](O)[C@@H](NC(=O)c4ccccc4)c4ccccc4)C(C)=C1C3(C)C)[C@]1(OC(C)=O)CO[C@@H]1C[C@@H]2O` [paclitaxel], for which the bioavailability is given as about 11%.
On to `CS(=O)(=O)CCNCc1ccc(-c2ccc3ncnc(Nc4ccc(OCc5cccc(F)c5)c(Cl)c4)c3c2)o1` [lapatinib], for which the “bioavailability (F)” value is 43–50%.
Regarding `CO[C@H]1C[C@@H]2CC[C@@H](C)[C@@](O)(O2)C(=O)C(=O)N2CCCC[C@H]2C(=O)O[C@H]([C@H](C)C[C@@H]2CC[C@@H](OCCO)[C@H](OC)C2)CC(=O)[C@H](C)/C=C(\C)[C@@H](O)[C@@H](OC)C(=O)[C@H](C)C[C@H](C)/C=C/C=C/C=C/1C` [everolimus], the bioavailability was about 5%.
